Values quoted from earlier work, collected in patent US5362498A, “Process for preparing a bioadhesive pharmaceutical dosage form and pharmaceutical dosage form thus prepared” (priority 1990, dated 1994).

Details: metabolite produced by digestive tract absorption of morphinic active principles

In the case of `CN1CC[C@]23c4c5ccc(O)c4O[C@H]2[C@@H](O[C@@H]2O[C@H](C(=O)O)[C@@H](O)[C@H](O)[C@H]2O)C=C[C@H]3[C@H]1C5` [morphine 6-glucuronide], the relative potency is given as 1.5 times.
